Common to all, as to format: biochemical
The target in assay [1] is T1, PI3Kδ (Homo sapiens, UniProt O00329).
T1 construct: p85iSH2(461-568)-GGGGGG-p110δ(2-1044)-His; His (C); made in house; host or cells: baculovirus / Tn5 insect cells
The assay is described as follows: PI3K KinaseGlo assay, PI3Kdelta. Conditions: for pIC50: KinaseGlo, 1 μM ATP, 10 nM enzyme, 30 mins; for PI3Kdelta (selectivity): selectivity factor: PI3Kdelta IC50 divided by PI3Kalpha IC50. (In Kinase-Glo more light means more ATP remaining.)

The target in assay [2] is T2, PI3Kγ (Homo sapiens, UniProt P48736, Q459R).
T2 construct: His (C); made in house; host or cells: Tn5 insect cells; construct obtained from Roger Williams lab (MRC LMB)
T2 sequence (P48736 with tags, fused parts or gaps Q459R): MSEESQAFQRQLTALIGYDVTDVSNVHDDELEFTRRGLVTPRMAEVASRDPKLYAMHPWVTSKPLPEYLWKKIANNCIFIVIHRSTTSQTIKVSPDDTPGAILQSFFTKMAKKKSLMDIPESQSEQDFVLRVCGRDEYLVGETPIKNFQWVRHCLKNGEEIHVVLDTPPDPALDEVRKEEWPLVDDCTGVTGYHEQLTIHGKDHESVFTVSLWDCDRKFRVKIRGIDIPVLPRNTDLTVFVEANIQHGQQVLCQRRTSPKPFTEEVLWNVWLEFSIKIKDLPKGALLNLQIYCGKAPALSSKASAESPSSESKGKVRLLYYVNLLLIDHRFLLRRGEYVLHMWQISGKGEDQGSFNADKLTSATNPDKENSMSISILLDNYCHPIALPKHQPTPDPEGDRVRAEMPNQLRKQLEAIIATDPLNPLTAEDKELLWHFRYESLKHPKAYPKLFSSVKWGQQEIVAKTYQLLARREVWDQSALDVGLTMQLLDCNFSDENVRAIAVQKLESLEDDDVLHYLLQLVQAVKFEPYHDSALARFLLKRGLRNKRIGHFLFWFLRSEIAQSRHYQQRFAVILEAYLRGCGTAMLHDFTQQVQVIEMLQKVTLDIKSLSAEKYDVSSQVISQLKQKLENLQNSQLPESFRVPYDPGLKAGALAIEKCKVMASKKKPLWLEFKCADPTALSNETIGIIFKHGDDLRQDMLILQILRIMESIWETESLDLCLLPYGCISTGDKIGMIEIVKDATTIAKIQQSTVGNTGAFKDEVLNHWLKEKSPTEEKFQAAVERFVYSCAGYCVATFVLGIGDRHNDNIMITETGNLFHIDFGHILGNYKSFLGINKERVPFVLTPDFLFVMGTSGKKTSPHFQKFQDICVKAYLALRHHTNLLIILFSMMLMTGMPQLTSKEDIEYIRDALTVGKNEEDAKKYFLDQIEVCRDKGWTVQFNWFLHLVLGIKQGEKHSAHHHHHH
Put plainly: PI3K KinaseGlo assay, PI3Kgamma. Conditions: for pIC50: KinaseGlo, 1 μM ATP, 150 nM enzyme, 90 mins; for PI3Kgamma (selectivity): selectivity factor: PI3Kgamma IC50 divided by PI3Kalpha IC50. The method, then: PI3K KinaseGlo assay: […] of compound dilutions were dispensed onto black 384-well low volume Non Binding Styrene (NBS) plates (Costar Cat. No. NBS#3676). L-a-phosphatidylinositol (PI), provided as 10 mg/ml solution in methanol, was transferred into a glass tube and dried under nitrogen beam. It was then resuspended in 3% OctylGlucoside (OG) by vortexing and stored at 4° C. The KinaseGlo Luminescent Kinase Assay (Promega, Madison/WI, USA) is a homogeneous HTS method of measuring kinase activity by quantifying the amount of ATP remaining in solution following a kinase reaction.
5 μL of a mix of PI/OG with the PI3K subtype were added (Table 1). Kinase reactions were started by addition of 5 μl of ATP-mix containing in a final volume 10 μL 10 mM TRIS-HCl pH 7.5, 3 mM MgCl2, 50 mM NaCl, 0.05% CHAPS, 1 mM DTT and 1 μM ATP, and occurred at room temperature. Reactions were stopped with 10 μl of KinaseGlo and plates were read 10 mins later in a Synergy2 reader using an integration time of 0.1 seconds per well. […] The standard was used as a reference compound and included in all assay plates in the form of 16 dilution points in duplicate.
The PI3Kα, PI3Kβ and PI3Kδ constructs are fusion of p85α iSH2 domain and the respective p110 isoforms. The p85α fragment and p110 isoform genes were generated by PCR from first strand cDNA generated by RT-PCR from commercial RNA from placenta, testis and brain as described below. The PI3Kγ construct was obtained from Roger Williams lab, MRC Laboratory of Molecular Biology, Cambridge, UK (November, 2003) and is described (Pacold, Michael E.; Suire, Sabine; Perisic, Olga; Lara-Gonzalez, Samuel; Davis, Colin T.; Walker, Edward H.; Hawkins, Phillip T.; Stephens, Len; Eccleston, John F.; Williams, Roger L. Crystal structure and functional analysis of Ras binding to its effector phosphoinositide 3-kinase gamma. Cell (2000), 103(6), 931-943).
Construct obtained from Roger Williams lab, MRC Laboratory of Molecular Biology, Cambridge, UK (November, 2003). Description of the construct in (Pacold, Michael E.; Suire, Sabine; Perisic, Olga; Lara-Gonzalez, Samuel; Davis, Colin T.; Walker, Edward H.; Hawkins, Phillip T.; Stephens, Len; Eccleston, John F.; Williams, Roger L. Crystal structure and functional analysis of Ras binding to its effector phosphoinositide 3-kinase gamma. Cell (2000), 103(6), 931-943). Constructs lacking the N-terminal 144 aa.

For assay [3], the target named is T3, PI3Kα (Homo sapiens, UniProt P42336).
T3 construct: His (C); made in house; host or cells: baculovirus / Tn5 insect cells
T3 sequence (P42336 with tags, fused parts or gaps): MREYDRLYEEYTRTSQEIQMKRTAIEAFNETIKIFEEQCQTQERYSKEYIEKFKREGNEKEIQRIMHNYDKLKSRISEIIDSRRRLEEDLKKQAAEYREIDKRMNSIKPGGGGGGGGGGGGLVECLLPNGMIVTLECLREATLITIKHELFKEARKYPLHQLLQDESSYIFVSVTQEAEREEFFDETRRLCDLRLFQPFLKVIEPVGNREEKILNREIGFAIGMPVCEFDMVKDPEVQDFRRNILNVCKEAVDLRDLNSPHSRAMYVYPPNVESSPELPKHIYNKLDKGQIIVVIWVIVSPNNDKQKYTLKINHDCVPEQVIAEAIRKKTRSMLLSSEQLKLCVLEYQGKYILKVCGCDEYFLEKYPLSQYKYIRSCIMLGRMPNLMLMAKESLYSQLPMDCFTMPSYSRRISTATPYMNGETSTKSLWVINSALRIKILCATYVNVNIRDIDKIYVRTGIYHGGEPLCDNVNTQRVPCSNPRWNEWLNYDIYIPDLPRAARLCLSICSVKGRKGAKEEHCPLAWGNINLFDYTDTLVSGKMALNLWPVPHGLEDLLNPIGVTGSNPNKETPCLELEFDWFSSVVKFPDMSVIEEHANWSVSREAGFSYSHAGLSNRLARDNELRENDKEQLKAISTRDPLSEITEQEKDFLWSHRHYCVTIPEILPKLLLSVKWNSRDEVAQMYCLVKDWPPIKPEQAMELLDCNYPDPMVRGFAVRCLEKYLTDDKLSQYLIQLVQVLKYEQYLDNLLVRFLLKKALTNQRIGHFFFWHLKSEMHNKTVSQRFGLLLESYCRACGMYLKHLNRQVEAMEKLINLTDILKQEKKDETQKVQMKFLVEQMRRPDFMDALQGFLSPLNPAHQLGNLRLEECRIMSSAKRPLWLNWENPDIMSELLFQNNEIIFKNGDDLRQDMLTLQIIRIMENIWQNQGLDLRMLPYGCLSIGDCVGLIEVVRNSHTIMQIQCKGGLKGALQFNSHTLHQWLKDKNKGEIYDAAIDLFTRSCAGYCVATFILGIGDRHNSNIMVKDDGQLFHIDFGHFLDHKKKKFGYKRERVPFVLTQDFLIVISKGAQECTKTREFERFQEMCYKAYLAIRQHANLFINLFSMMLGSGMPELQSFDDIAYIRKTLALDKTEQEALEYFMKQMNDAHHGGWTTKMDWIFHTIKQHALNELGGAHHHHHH
The assay is described as follows: PI3K KinaseGlo assay, PI3Kalpha. Conditions: 1 μM ATP, 10 nM enzyme, 30 mins.

Assay [4] has as its target T4, PI3Kβ (Homo sapiens, UniProt P42338).
T4 construct: His (C); made in house; host or cells: baculovirus / Tn5 insect cells
The assay is described as follows: PI3K KinaseGlo assay, PI3Kbeta. The following applies: for pIC50: KinaseGlo, 1 μM ATP, 25 nM enzyme, 30 mins; for PI3Kbeta (selectivity): selectivity factor: PI3Kbeta IC50 divided by PI3Kalpha IC50.

Each structure is given as a SMILES string. pIC50: −log10 of the molar value.

From US8293753B2, “Substituted 2-carboxamide cycloamino ureas” (Novartis AG, priority 2009, dated 2012) come the findings set out here.

As usually defined, the pIC50 is −log10 of the IC50, conventionally taken in molar units.

T4 sequence (P42338 with tags, fused parts or gaps): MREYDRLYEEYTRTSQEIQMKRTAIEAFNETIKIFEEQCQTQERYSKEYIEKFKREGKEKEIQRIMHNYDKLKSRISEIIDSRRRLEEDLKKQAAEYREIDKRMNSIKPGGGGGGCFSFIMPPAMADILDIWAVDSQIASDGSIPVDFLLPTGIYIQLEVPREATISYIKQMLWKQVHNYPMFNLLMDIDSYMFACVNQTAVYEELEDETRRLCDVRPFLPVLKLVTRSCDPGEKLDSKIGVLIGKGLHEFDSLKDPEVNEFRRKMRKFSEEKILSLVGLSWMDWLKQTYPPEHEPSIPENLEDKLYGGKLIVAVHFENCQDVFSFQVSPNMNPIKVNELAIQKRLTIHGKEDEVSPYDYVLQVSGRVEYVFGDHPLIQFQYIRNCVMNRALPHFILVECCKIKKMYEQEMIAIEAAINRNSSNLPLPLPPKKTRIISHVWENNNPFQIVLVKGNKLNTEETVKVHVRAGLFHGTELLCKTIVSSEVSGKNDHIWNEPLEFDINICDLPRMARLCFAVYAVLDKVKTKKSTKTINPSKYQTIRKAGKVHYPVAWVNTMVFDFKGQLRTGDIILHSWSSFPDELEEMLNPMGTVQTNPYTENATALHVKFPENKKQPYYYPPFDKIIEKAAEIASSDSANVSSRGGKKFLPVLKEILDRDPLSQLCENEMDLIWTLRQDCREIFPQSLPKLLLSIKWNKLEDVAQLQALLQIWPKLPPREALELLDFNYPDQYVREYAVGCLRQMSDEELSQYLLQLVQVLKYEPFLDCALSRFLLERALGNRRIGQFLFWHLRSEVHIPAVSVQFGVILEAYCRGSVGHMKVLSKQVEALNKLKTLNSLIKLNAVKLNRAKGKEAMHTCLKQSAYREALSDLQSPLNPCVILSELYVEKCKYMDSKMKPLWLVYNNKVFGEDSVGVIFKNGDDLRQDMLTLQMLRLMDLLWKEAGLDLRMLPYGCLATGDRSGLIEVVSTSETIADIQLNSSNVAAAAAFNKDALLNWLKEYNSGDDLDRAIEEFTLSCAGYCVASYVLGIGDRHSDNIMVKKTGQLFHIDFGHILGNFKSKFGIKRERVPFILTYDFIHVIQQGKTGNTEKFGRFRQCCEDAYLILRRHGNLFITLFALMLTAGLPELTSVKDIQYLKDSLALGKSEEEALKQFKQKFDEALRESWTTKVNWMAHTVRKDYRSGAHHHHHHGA
T1 sequence (O00329 with tags, fused parts or gaps): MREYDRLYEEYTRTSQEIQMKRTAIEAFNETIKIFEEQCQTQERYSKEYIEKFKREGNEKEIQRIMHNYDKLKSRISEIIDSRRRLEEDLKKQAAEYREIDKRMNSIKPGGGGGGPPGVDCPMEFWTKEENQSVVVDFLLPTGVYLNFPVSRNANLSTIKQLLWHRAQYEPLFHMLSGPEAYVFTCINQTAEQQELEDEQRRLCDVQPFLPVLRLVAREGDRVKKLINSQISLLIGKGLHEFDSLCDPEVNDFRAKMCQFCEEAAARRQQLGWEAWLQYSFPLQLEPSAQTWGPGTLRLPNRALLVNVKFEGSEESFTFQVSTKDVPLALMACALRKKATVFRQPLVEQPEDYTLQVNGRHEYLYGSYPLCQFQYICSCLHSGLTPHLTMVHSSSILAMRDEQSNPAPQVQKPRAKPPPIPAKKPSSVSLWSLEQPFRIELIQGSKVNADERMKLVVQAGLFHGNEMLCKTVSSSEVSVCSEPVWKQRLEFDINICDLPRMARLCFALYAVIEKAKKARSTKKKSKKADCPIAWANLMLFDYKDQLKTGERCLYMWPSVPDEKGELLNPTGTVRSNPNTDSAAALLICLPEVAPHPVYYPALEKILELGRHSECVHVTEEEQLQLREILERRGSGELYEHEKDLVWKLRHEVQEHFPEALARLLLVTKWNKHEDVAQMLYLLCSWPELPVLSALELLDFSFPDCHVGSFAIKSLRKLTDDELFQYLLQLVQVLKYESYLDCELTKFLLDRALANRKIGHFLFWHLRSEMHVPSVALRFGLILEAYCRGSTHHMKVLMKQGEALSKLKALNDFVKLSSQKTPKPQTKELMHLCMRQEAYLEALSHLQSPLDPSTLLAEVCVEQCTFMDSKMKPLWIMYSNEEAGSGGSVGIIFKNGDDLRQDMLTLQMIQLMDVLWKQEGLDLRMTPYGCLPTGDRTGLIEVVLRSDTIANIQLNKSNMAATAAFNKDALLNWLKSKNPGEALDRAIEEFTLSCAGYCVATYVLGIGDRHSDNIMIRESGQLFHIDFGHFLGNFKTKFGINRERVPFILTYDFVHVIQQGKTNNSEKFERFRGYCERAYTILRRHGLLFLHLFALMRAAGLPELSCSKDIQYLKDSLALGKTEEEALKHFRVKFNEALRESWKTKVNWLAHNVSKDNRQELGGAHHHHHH

As for `[2H]C([2H])([2H])C(c1nccc(-c2sc(NC(=O)N3CC[C@@H](C)[C@H]3C(N)=O)nc2C)n1)(C([2H])([2H])[2H])C([2H])([2H])[2H]` [Example 12, (2S,3R)-3-Methylpyrrolidine-1,2-dicarboxylic acid 2-amide 1-{[5-(2-d9-tert-butyl-pyrimidin-4-yl)-4-methyl-thiazol-2-yl]-amide}], in assay [1], the pIC50 was 7.48 and the “PI3Kdelta (selectivity)” value is on record as “(7)”. For the same compound, in assay [2], the pIC50 was 7.12 and the “PI3Kgamma (selectivity)” value was “(16)”. The compound further had a negative-log IC50 (pIC50) in assay [3] of 8.35. Moreover, in assay [4], the pIC50 is 5.80 and the “PI3Kbeta (selectivity)” value is “(353)”.

For the compound `[2H]C([2H])([2H])C([2H])([2H])N(c1cncc(-c2sc(NC(=O)N3CC[C@@H](C)[C@H]3C(N)=O)nc2C)n1)C([2H])([2H])C([2H])([2H])[2H]` [Example 13, (2S,3R)-3-Methyl-pyrrolidine-1,2-dicarboxylic acid 2-amide 1-{[5-(6-d10-diethylamino-pyrazin-2-yl)-4-methyl-thiazol-2-yl]-amide}], the pIC50 in assay [1] is 7.31; in assay [2], 6.38; in assay [3], 8.40; in assay [4], 6.03. The “PI3Kdelta (selectivity)” value in assay [1] is given as “(12)”. Also, the “PI3Kgamma (selectivity)” value in assay [2] was “(104)”. Moreover, in assay [4], the “PI3Kbeta (selectivity)” value was “(234)”.
